The test system of experiment [1] is HepG2. Description: Proliferation inhibition, HepG2 cell line. The class given is cell-based. Particulars: Homo sapiens; HepG2 cells, 96 hours culture, cell viability detection; read-out: Antiproliferative IC50 HepG2. An excerpt: (§1) The cell lines used in the test are NCI-H929 and HepG2 cell lines whose Wnt pathway is continuously activated and whose proliferation is Wnt pathway-dependent; the inhibitory effect of the compound of the present invention on Wnt-dependent proliferation is judged.
(§2) Treat the NCI-H929 and HepG2 cell lines cultured in their respective mediums in the logarithmic growth phase, collect the cells and prepare a uniform cell suspension of known concentration, and then add the cell suspension to the 96-well cell culture plate solution so that each well contains 4000 cells. Put it into a […] incubator and incubate at 37° C. for 20-24 h. On the second day, the fully dissolved, 3-fold serially diluted compound was added to each cell culture well, so that the final maximum concentration in the cell culture well was 20 uM, and the culture was continued for 96 hours. In this test, Promega's cell viability detection test is used for detection. The more the cells proliferate, the stronger the final signal intensity will be. The detection instrument is SpectraMax, full wavelength mode. The wells only added with DMSO were used as positive control wells, and the wells that were not inoculated with cells were used as negative control wells. […] The IC50 value of cell proliferation inhibition was used to evaluate the inhibitory effect of the compound on the Wnt pathway and the toxic effect on normal cells (Table 3).

In experiment [2] the test system is RKO. The experiment is described as follows: Proliferation inhibition, non-Wnt mutant control cell line RKO. In kind it is cell-based. Particulars: Homo sapiens, Wnt-independent control cell line, 96 hours, read-out: Antiproliferative IC50 RKO. A digest of the protocol: (§3)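 Read-out is a Promega cell viability signal that rises with proliferation, taken after 96 hours of compound treatment. Compound was dosed as a 3-fold dilution series up to 20 uM final, one day after plating 1000 log-phase cells per well; IC50 is calculated against DMSO and no-cell controls.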

Experiment [3] has as its system DU4475. The experiment is described as follows: Proliferation inhibition, Wnt mutant cell line DU4475. Particulars: Homo sapiens, DU-4475; DU4475, Wnt pathway-dependent, 96 hours; read-out: Antiproliferative IC50 DU4475. In kind it is cell-based. A digest of the protocol:
as §3

Experiment [4] has as its system Colo205-LUC-TCF/LEF M1 reporter cell line (Wnt pathway). Description: Colo205-LUC-TCF/LEF M1 reporter gene (luciferase) inhibition. Particulars: 4 hours incubation, luciferase readout. The class given is cell-based. A digest of the protocol:
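Luminescent readout of TCF/LEF-regulated luciferase after a 4 h, 37° C compound exposure in a stable Colo205 reporter clone (10,000 cells/well). Serial 3-fold dilutions started at 20 uM; IC50 derived using DMSO-treated cells and no-cell wells as controls.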

Experiment [5] relates to Colo205. Description: Proliferation inhibition, Wnt mutant cell line Colo205. In kind it is cell-based. Particulars: Homo sapiens, COLO 205; Colo205, Wnt pathway-dependent, 96 hours; read-out: Antiproliferative IC50 Colo205. A digest of the protocol:
as §3

For experiment [6], the system named is NCI-H929. The experiment is described as follows: Proliferation inhibition, NCI-H929 cell line. In kind it is cell-based, human. Particulars: Homo sapiens; NCI-H929 cells, 96 hours culture, cell viability detection; read-out: Antiproliferative IC50 NCI-H929.
Text: as §1, §2

The structures appear in SMILES notation. Some results are limits rather than exact numbers.

In the case of `CN1c2nc(NCc3ccc(Oc4ccc(C(F)(F)F)nc4)nc3)nc3c2N(CCC3)C(=O)[C@@H]1CC(F)(F)F` [190 (W317)], the IC50 in experiment [1] is 2.1 nM; in experiment [2] it was more than 10 µM; in experiment [3] it was less than 0.5 nM; in experiment [4], 11 nM; in experiment [5], 7.9 nM; in experiment [6], 6.4 nM.

Regarding `CN1c2nc(NCc3ccc(Oc4cnc(C(F)(F)F)nc4)nc3)nc3c2N(CCC3)C(=O)[C@@H]1CC(F)(F)F` [199 (W319)], the IC50 in experiment [1] was 2 nM; in experiment [2], more than 10 µM; in experiment [3] it was less than 0.5 nM; in experiment [4] it was 9 nM; in experiment [5] it was 6.9 nM; in experiment [6] it was 28 nM.

In the case of `C[C@H]1C(=O)N2CCCc3nc(NCc4ccc(Oc5cc(C(F)(F)F)nn5C)nc4)nc(c32)N1C` [128 (W263), (S)-4,5-dimethyl-2-(((6-((1-methyl-3-(trifluoromethyl)-1H-pyrazol-5-yl)oxo)pyridine-3-yl)methyl)amino)-4,5,9,10-tetrahydro-6H,8H-pyrido[3,2,1-de]pteridin-6-one], the IC50 is 27 nM in experiment [1]; more than 10 µM in experiment [2]; 4.1 nM in experiment [3]; 19 nM in experiment [4]; 18.6 nM in experiment [5]; 78 nM in experiment [6].

On to `[2H]C([2H])([2H])N1c2nc(NCc3ccc(Oc4cnc(C(F)(F)F)nc4)nc3)nc3c2N(CCC3)C(=O)[C@@H]1CC(F)F` [164 (W326)], for which the 50% inhibitory concentration (IC50) is 7.5 nM in experiment [1]; more than 10 µM in experiment [2]; 5 nM in experiment [3]; 26 nM in experiment [4]; 5 nM in experiment [5]; 26 nM in experiment [6].

For the molecule `CN1c2nc(NCc3ccc(Oc4ccc(C(F)(F)F)nc4)nc3)nc3c2N(CCC3)C(=O)C1(C)C` [176 (W296)], the half-inhibitory concentration (IC50) in experiment [1] was 27 nM; in experiment [2] it was more than 10 µM; in experiment [3], 3.8 nM; in experiment [4] it was 20 nM; in experiment [5], 5.6 nM; in experiment [6] it was 40 nM.

Take `CCN1c2nc(NCc3ccc(Oc4ccc(C(F)(F)F)nc4)nc3)nc3c2N(CCC3)C(=O)[C@@H]1C(C)C` [118 (W279), (S)-4-ethyl-5-isopropyl-2-(((6-((6-(trifluoromethyl)pyridin-3-yl)oxo)pyridin-3-yl)methyl)amino)-4,5,9,10-tetrahydro-6H,8H-pyrido[3,2,1-de]pteridin-6-one]: the IC50 was 16 nM in experiment [1]; more than 10 µM in experiment [2]; 6.5 nM in experiment [3]; 5 nM in experiment [4]; 8.5 nM in experiment [5]; 83 nM in experiment [6].

With `CC[C@H]1C(=O)N2CCCc3nc(NCc4ccc(Oc5cnc(C(F)(F)F)nc5)nc4)nc(c32)N1C` [161 (W269)], the IC50 in experiment [1] is 16 nM; in experiment [2], more than 10 µM; in experiment [3], less than 0.5 nM; in experiment [4], 9 nM; in experiment [5], 4.6 nM; in experiment [6], 22 nM.

On to `CC[C@H]1C(=O)N2CCCc3nc(NCc4ccc(Oc5ccc(C(F)(F)F)nc5)nc4)nc(c32)N1C` [119 (W255), (S)-5-ethyl-4-methyl-2-(((6-((6-(trifluoromethyl)pyridin-3-yl)oxo)pyridin-3-yl)methyl)amino)-4,5,9,10-tetrahydro-6H,8H-pyrido[3,2,1-de]pteridin-6-one], for which the IC50 was 5.4 nM in experiment [1]; more than 10 µM in experiment [2]; 2.3 nM in experiment [3]; 7 nM in experiment [4]; 7.5 nM in experiment [5]; 28 nM in experiment [6].

On to `CCN1c2nc(NCc3ccc(Oc4cnc(C(F)(F)F)nc4)nc3)nc3c2N(CCC3)C(=O)[C@@H]1C` [168 (W298)], for which the IC50 in experiment [1] was 35 nM; in experiment [2] it was more than 10 µM; in experiment [3], 11 nM; in experiment [4], 26 nM; in experiment [5], 29 nM; in experiment [6] it was 68 nM.

Source of the values: patent US12622917B2, “High-activity Wnt pathway inhibitor compound” (ADLAI NORTYE BIOPHARMA CO., LTD., priority 2020, dated 2026).
